From patent publication US20220096717A1, “AXITINIB-LOADED NANOFIBER MEMBRANE, PREPARATION METHOD FOR THE SAME, AND ITS USE OF ANTI-ADHESION AFTER A SURGERY” (SHANGHAI CHILDREN'S MEDICAL CENTER, SHANGHAI JIAO TONG …, priority 2020, published 2022)

Test: Solubility of Axitinib (FIG. 1)
Type: physicochemical
Details: FIG. 1A
Protocol: FIG. 1: pictures showing solubility of Axitinib. A is a picture in which Axitinib is dissolved in water and trifluoroethanol; B is a picture in which gelatin and polycaprolactone are dissolved in trifluoroethanol with and without the addition of Axitinib to the electrospinning solution.
Stirring the solution to forms a milky solution. When it stays for a long period of time, granular precipitation may occur. […] 0.25 g of gelatin and 0.25 g of polycaprolactone were dissolved in 5 ml of trifluoroethanol containing 20 μl of acetic acid to form a transparent solution, and 50 mg of Axitinib was added to form a light yellow transparent solution (B).

- solubility in trifluoroethanol (TFE) (trifluoroethanol): quickly dissolved
- solubility in water (water): poorly soluble
Compound: CNC(=O)c1ccccc1Sc1ccc2c(/C=C/c3ccccn3)n[nH]c2c1 [Axitinib]
